Data set [1] deals with U343mga cells. The experiment in a line: Cell uptake of boron compounds (Example 2). It is filed as cell-based, human. Conditions: for boron content expressed as a function of the total cellular protein, Trial 1 / boron content expressed as a function of the total cellular protein, Trial 2: 6 hours incubation, 5×10^−4 mol/L boron; for boron content expressed as a function of the total cellular protein, Trial 1: 7.2 μg boron/mL media; for boron content expressed as a function of the total cellular protein, Trial 2: 7.7 μg boron/mL media. How it is done:
(§1) An in vitro test of the Phe-BF3 of the Example 1 uses four different human-derived tumor cell lines U343mga, human liver cancer cell line Hep3B, human breast cancer cell line MCF7 and human Sarcoma cell line 4SS. Cells were plated on uncoated tissue culture dishes and incubated at 37° C. in an incubator with humidified air equilibrated with 5% CO2 (the medium was supplemented with 10% FCS and PEST (Penicillin 100 IU/mL and streptomycin […])). For cell passage, cells were trypsinized with trypsin-EDTA (phosphate buffered saline (PBS) with 0.25% trypsin and 0.02% EDTA, no calcium and magnesium).
U343mga cells were plated on Petri dishes at a cell density of 75% and incubated for 6 hours with 1,4-dihydroxyborylphenylalanine (BPA) or Phe-BF3 dissolved in tissue culture medium. Both boron-containing compounds were added at an equimolar concentration relative to the boron content (5×10^−4 mol/L boron) and dissolved in tissue culture medium. Incubation was terminated by removing the boron containing tissue culture medium and adding cold phosphate buffered saline solution (PBS buffer) in order to wash away excess medium from the cells. Cells were immediately harvested by scooping off from the petri dishes using rubber policeman, and collected in cold PBS and pelleted by centrifugation.
Total protein analysis was performed on cell samples according to the Bradford standard procedure. The precipitated cells were subjected to boron analysis by DC-plasmon atomic emission spectroscopy (DCP-AES). The sample (50-130 mg) was digested with sulfuric acid/nitric acid (1/1) at 60° C. Triton X-100 and water were added to give concentrations of 50 mg tissue/mL, 15% total acid v/v, and 5% Triton X-100 v/v. The boron concentration is based on known control sample.

For the next data set, the system named is U343mga. Put plainly: Uptake of Phe-BF3 by different tumor cells (Example 3). Type of data set: cell-based, human. The method, then:
as §1
(§2) Four human-derived, different tumor cell lines: U343mga, Hep3B, MCF7, and 4SS were plated on Petri dishes at 40-50% (low) and 90-100% (high) cell densities, and incubated with Phe-BF3 in tissue culture as described above for 6 hours. Incubation was terminated by removing the boron-containing media and adding cold PBS buffer to wash excess media from the cells. Cells were immediately harvested by scooping off from the petri dishes using rubber policeman, and collected in cold PBS and pelleted by centrifugation. Total protein analysis was performed on cell samples according to the Bradford standard procedure (as described above).

Data set [2] concerns human Sarcoma cell line 4SS. Described as above. Type of data set: cell-based. Conditions: 6 hours. The method, then: as §1, §2
Data set [3] deals with human breast cancer cell line MCF7. The description is as above. Type of data set: cell-based. Conditions: 6 hours. How it is done:
as §1, §2

Data set [4] relates to human liver cancer cell line Hep3B. The description is as above. Conditions: 6 hours. Type of data set: cell-based. The method, then: as §1, §2
Data set [5] has as its system U343mga cells. The experiment in a line: Intracellular retention of boron (Example 4). Type of data set: cell-based, human. Conditions: for Boron content in U343mga cells, 0 h after removal of the boron-containing medium / Boron content in U343mga cells, 2 h after removal of the boron-containing medium / Boron content in U343mga cells, 7 h after removal of the boron-containing medium: 18 hours incubation, 5×10^−4 mol/L boron. The method, then: U343mga cells were plated on Petri dishes at a cell density of 75% and incubated for 18 hours with 1,4-dihydroxyboron-phenylalanine (BPA) or Phe-BF3 in tissue culture medium. Both boron compounds were added to the tissue culture medium at equimolar concentrations relative to the boron content (5×10^−4 mol/L boron). The incubation was terminated by replacing the boron-containing medium with a boron-free medium. Cell samples were taken at time points 0, 2 and 7 hours, respectively, where the 0 time point represented the time point when the incubation with the boron compound reached just 18 hours.
The cells were washed with cold PBS and immediately harvested by scooping off from the petri dish using rubber policeman, and collected in cold PBS and pelleted by centrifugation. The cell pellets were analyzed for total protein and boron content as described above. With intracellular uptake, the compound of formula (I) retained in the tumor cells was 50% of the total uptake at 7 h after the complete consumption of Ia in the medium.

Data set [6] concerns mouse fibroblast L-929 cells. Put plainly: Cytotoxicity study, MTT colorimetry (Example 5). It is filed as cell-based. Conditions: for Relative cell proliferation RGR: 5 mmol/L, MTT. How it is done:
The cell culture fluid containing the peptide bovine serum was incubated at 37 C for 24 hours. The passage cultured mouse fibroblast L-929 cells were used to prepare a cell suspension of 1×10^5 cells/mL, and the cell suspension was seeded on a 96-well cell culture plate (100 μl/well) and cultured in a carbon dioxide incubator at 37° C. for 24 hours. After the cells adhere to the wall, the supernatant was removed, the control solution (in absence of compound Ia) was added, and the culture solution of the test group (Phe-BF3 concentration of 5 mmol/L) was exchanged, and the culture was continued in the carbon dioxide incubator at 37° C. After 2 days, MTT solution was added to continue culture for 4 hours. The original solution was aspirated and DMSO was added and shaken for 10 min. The absorbance value was measured with an enzyme-linked immunometric instrument at a wavelength of 630 nm, and the relative proliferation rate (RGR) of the cells was calculated according to the absorbance according to the formula.

In the case of `[NH3+]C(Cc1ccccc1)[B-](F)(F)F` (stereo not drawn) [Phe-BF3], in the data set with U343mga cells [1] (6 hours), the “boron uptake compared with BPA” value is “better than boron phenylalanine (BPA) in boron uptake”. In addition, in the data set with U343mga cells [1], the “boron content expressed as a function of the total cellular protein, Trial 1” value is given as 549. Also, the “boron content expressed as a function of the total cellular protein, Trial 2” value in the data set with U343mga cells [1] was determined as 421. The “boron content as a function of the total cellular protein, low cell density” value is on record as 102 μg boron/g cell protein in the data set with U343mga (U343mga, 40-50% cell density, 6 hours); 255 μg boron/g cell protein in data set [2] (40-50% cell density); 101 μg boron/g cell protein in data set [3] (MCF7, 40-50% cell density); 149 μg boron/g cell protein in data set [4] (40-50% cell density). Besides, the “boron content as a function of the total cellular protein, high cell density” value is 178 μg boron/g cell protein with U343mga (U343mga, 90-100% cell density, 6 hours); 343 μg boron/g cell protein in data set [2] (90-100% cell density); 167 μg boron/g cell protein in data set [3] (MCF7, 90-100% cell density); 207 μg boron/g cell protein in data set [4] (90-100% cell density). In addition, the “efficiency as boron carrier” value with U343mga (all four human tumor cell lines at low and high cell densities) is “highly efficient boron carrier”. Further, in the data set on U343mga cells [5], the “Boron content in U343mga cells, 0 h after removal of the boron-containing medium” value is on record as 0.83 μg boron/g cell pellet. In the data set on U343mga cells [5], the “Boron content in U343mga cells, 2 h after removal of the boron-containing medium” value is given as 0.56 μg boron/g cell pellet. Moreover, the “Boron content in U343mga cells, 7 h after removal of the boron-containing medium” value in the data set with U343mga cells [5] was found to be 0.41 μg boron/g cell pellet. Moreover, the “tumor cell uptake, accumulation, and retention compared with BPA” value in the data set on U343mga cells [5] (summary of Examples 2-4, in vitro) was “superior to BPA in tumor cell uptake, accumulation, and retention”. The “Relative cell proliferation RGR” value is 123% in data set [6] (2 days) and 102% in data set [6] (7 days). In addition, the cytotoxicity assessment entry in data set [6] (graded by RGR (Table 5)) was “no signs of toxicity”.
Take `N[C@@H](CC1(BO)C=CC(BO)=CC1)C(=O)O` (stereo partly drawn) [BPA, 1,4-dihydroxyborylphenylalanine, reference compound]: in the data set on U343mga cells [1], the “boron content expressed as a function of the total cellular protein, Trial 1” value stood at 62 and the “boron content expressed as a function of the total cellular protein, Trial 2” value turned out to be 39. Further, in the data set on U343mga cells [5], the “Boron content in U343mga cells, 0 h after removal of the boron-containing medium” value came out at 0.072 μg boron/g cell pellet; the “Boron content in U343mga cells, 2 h after removal of the boron-containing medium” value came to 0 μg boron/g cell pellet; the “Boron content in U343mga cells, 7 h after removal of the boron-containing medium” value came out at 0 μg boron/g cell pellet.

The values are drawn from US20190381337A1, “BORON NEUTRON CAPTURE THERAPY SYSTEM” (NEUBORON MEDTECH LTD., priority 2016, published 2019).
